Experimental data as given in BindingDB's records for patent US12384786 (Minghui Pharmaceutical (Shanghai), 2025).

How the values were obtained:
[1] = molecular target: Tyrosine-protein kinase BTK [C481S] (Homo sapiens, UniProt Q06187, C481S); assay: Biochemical Evaluation
[2] = molecular target: Tyrosine-protein kinase BTK (Homo sapiens, UniProt Q06187); assay: Biochemical Evaluation
Chain of Tyrosine-protein kinase BTK (Q06187 whole entry): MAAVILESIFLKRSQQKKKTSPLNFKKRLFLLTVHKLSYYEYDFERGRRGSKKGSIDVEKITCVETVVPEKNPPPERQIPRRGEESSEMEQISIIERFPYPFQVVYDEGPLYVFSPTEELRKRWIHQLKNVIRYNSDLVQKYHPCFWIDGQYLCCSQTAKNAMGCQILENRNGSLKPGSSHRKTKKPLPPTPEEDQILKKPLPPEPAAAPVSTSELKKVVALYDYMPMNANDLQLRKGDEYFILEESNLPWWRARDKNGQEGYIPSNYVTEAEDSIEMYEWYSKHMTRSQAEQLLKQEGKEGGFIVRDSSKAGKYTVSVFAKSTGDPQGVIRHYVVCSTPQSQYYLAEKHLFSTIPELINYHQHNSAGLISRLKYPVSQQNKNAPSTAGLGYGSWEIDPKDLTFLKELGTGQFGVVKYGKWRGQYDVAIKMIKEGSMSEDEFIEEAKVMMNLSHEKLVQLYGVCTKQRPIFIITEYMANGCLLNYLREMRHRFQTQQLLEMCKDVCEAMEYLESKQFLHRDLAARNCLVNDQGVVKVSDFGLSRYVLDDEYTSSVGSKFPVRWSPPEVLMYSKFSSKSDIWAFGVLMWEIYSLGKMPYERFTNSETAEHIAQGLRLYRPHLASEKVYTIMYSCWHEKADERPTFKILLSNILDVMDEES

Chain of Tyrosine-protein kinase BTK [C481S] (Q06187 2-659 C481S limits assumed): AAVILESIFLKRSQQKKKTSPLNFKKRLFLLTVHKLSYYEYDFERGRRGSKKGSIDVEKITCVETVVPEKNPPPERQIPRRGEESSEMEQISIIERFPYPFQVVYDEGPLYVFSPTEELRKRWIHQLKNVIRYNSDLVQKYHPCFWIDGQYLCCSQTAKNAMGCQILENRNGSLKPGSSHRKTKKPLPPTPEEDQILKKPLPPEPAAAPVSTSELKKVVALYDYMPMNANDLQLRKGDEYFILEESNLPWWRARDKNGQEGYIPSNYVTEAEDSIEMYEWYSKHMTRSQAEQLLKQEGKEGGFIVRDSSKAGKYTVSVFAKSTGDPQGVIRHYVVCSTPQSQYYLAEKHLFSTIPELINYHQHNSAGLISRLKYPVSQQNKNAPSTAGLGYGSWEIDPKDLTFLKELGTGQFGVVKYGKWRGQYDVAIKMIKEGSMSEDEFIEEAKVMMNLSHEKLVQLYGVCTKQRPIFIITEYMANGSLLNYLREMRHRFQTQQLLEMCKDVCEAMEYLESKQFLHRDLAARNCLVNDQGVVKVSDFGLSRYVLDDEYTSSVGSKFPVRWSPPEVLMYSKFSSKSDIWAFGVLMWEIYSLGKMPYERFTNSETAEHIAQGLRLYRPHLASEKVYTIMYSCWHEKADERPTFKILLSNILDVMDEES

IC50 [1]: 0.7 nM
IC50 [2]: 2.5 nM
SMILES: Nc1ncnc2c1c(-c1ccc(Oc3ccccc3)cc1)nn2[C@H]1CC[C@@H](O)CC1 [US12384786, Example 8A]
